From patent publication US20070219172A1, “Selective testicular 11beta-HSD inhibitors for the treatment of hypergonadism associated disorders and modulation of fertility” (The Miriam Hospital, priority 2005, published 2007)
“Also recorded” adds a separate entry of the source. Where two headings read alike, the source gives them in different places.

Experiments:
11β-HSD1 Reductase [1] = biological target: T1, 11β-HSD1 Reductase (Rattus norvegicus, UniProt P16232); assay: 11β-HSD1 reductase inhibition, testicular Leydig cell homogenates; format: biochemical; conditions: result in words
T1 construct: testicular leydig cell homogenates; from tissue; host or cells: testicular Leydig cell homogenates
T1 sequence (P16232 whole entry): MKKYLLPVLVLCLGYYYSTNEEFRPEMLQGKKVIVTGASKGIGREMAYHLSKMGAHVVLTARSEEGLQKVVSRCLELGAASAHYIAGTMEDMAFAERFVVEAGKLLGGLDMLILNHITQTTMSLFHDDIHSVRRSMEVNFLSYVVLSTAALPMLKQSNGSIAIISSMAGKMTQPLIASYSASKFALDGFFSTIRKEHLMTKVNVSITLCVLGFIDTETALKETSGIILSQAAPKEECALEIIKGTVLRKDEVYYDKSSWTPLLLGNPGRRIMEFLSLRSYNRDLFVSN

11β-HSD1 Dehydrogenase = biological target: T2, 11β-HSD1 Dehydrogenase (Rattus norvegicus, UniProt P16232); assay: 11β-HSD1 dehydrogenase inhibition, testicular Leydig cell homogenates; format: biochemical; conditions: result in words
T2 construct: testicular leydig cell homogenates; from tissue; host or cells: testicular Leydig cell homogenates
T2 sequence (P16232 whole entry): as above

11β-HSD2 Dehydrogenase = biological target: T3, 11β-HSD2 Dehydrogenase (Ovis aries, UniProt P50168); assay: 11β-HSD2 dehydrogenase inhibition, sheep kidney microsomes; format: biochemical; conditions: result in words
T3 construct: sheep kidney microsomes; from tissue; host or cells: sheep kidney microsomes
T3 sequence (P50168 1-427): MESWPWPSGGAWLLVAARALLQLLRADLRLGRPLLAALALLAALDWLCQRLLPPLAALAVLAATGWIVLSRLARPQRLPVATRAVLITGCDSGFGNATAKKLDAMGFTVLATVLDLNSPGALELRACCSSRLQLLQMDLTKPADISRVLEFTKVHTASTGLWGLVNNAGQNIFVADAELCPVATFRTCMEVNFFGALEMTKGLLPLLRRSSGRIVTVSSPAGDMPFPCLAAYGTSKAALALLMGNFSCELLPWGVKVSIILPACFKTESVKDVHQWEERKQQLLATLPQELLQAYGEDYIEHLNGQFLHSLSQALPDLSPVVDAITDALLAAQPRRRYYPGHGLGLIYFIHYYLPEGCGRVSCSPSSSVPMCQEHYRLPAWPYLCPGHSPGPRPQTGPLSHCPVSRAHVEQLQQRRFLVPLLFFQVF

rat aortic rings = assay: Contractile response of rat aortic rings to phenylephrine; conditions: for amplification of the contractile response to phenylephrine by the steroid: rat aortic rings incubated with the steroid, versus controls
Experimental: Male Sprague-Dawley (150-200 g) rats were anesthetized with pentobarbital (50 mg/kg IP), and a median sternotomy was performed followed by the rapid removal of the thoracic aorta. The adventitia was removed, but the endothelium was left intact. The aorta was cut into 2-3 mm rings and individual rings were placed into a single well of a twenty four well culture plate and incubated at 37° C. under 95% O2-5% CO2. Each well contained 1 mL of DMEM/F12 containing 1% fetal bovine serum, streptomycin (100 μg/ml), penicillin (100 units/ml) and amphotericin (0.25 μg/ml). Aortic rings were incubated for 24 hours prior to contractility measurements with the following combinations of steroids, and antisense/nonsense oligonucleotides (3 μmol/L):
Antisense phosphorothioate oligonucleotides, targeted to block either 11β-HSD2 or 11β-HSD1 gene expression, were obtained from Research Genetics, Huntsville Ala. Antisense oligomers complementary to 20 bp sequences spanning the ribosome binding/translation start site were used. Oligomer sequences were: 5′-CATAACTGCCGTCCAACAGC-3′ (SEQ ID No.: 2) for 11β-HSD1 Antisense and 5′-AGCCCAGCGCTCCATGACTT-3′ (SEQ ID No. 3) for 111-HSD2 antisense. In control experiments the corresponding sense sequence was used as the nonsense oligomer. Antisense and nonsense oligomers were added directly to each well at 20 μg/10:1 sterile H20 per well for a final concentration of 3 μmol/L.
For contraction measurements, aortic rings were suspended by tungsten wires with 1 g of tension and placed in a vessel bath containing serum free DMEM/F12 media at 37° C. aerated with 95% O2-5% CO2, at pH 7.4. Vessels were equilibrated for 20 minutes and then tested with phenylephrine ([…]-10 μmol/L). […] The intensity of contraction was assessed by use of a Narishige micromanipulator and model FT03 force transducer (Grass Instrument Co. West Warwick, R.I.). Measurements were recorded on computer using the Labview 4.1 Virtual Instrument System (National Instruments, Austin, Tex.).

11β-HSD1 Reductase [2] = biological target: T1, 11β-HSD1 Reductase; assay: Backward reaction of 11β-HSD1 reductase in rat Leydig cells; format: cell-based
Experimental: Similar experiments were performed with 3α,5β-deoxycorticosterone and 3α,5β progesterone, neither of which posess an 11β-hydroxy group.

[3] = test system: 11β-HSD1-reductase activity in rat aortic rings; assay: Conversion of 3H-11-dehydrocorticosterone to corticosterone by aortic rings; conditions: vascular tissue
Experimental: (ii) ^3H-11-dehydro-corticosterone (10 nmol/L)±11β-HSD1 antisense (3 μmol/L); this experiment was performed in duplicate (n=10 aortic rings per well). Control groups were incubated with the appropriate nonsense oligomer. ^3H-corticosterone in the incubation medium after 24 hrs was then measured. In this experiment, aortic rings were also analyzed for ^3H-corticosterone content. Rings from duplicate incubations (total n=20) were blotted dry, pooled and homogenized in 50% methanol using a Polytron. The homogenates were then centrifuged, extracted as below using Sep-Paks and injected onto a HPLC system for analysis.
Incubation media was collected, ran through a Sep-Pak and eluted with 3 mls of methanol, the eluate was then dried under nitrogen and reconstituted in 500:1 methanol. The aortic rings were dried and weighed. The steroids present in the eluate were separated by high-pressure liquid chromatography with a Dupont Zorbax C8 column eluted at 44° C. at a flow rate of 1 mL/min using 55% methanol for 10 minutes. Steroids were observed by monitoring radioactivity on-line with a Packard Radiomatic Flo-One/Beta Series A-500 counter connected to a Dell Optiflex 425 S/L computer. Corticosterone and 11-dehydro-corticosterone were identified by comparing their retention times with that of known standards.

[4] = whole cell preparations of rat Leydig cells

3α,5α-reduced-11-keto-progesterone
11β-HSD1 Reductase inhibition (11β-HSD1 Reductase [1]): Selective Inhibitor
11β-HSD1 Dehydrogenase inhibition (11β-HSD1 Dehydrogenase): No Inhibition

C[C@H](CCC(=O)O)[C@H]1CC[C@H]2[C@@H]3[C@H](O)C[C@@H]4C[C@H](O)CC[C@]4(C)[C@H]3CC[C@]12C [chenodeoxycholic acid]
11β-HSD1 Reductase inhibition (11β-HSD1 Reductase [1]): No Inhibition
11β-HSD1 Dehydrogenase inhibition (11β-HSD1 Dehydrogenase): potent inhibitors; also recorded: Selective inhibitor
11β-HSD2 Dehydrogenase inhibition (11β-HSD2 Dehydrogenase): No Inhibition

C[C@]12CC[C@H](O)C[C@@H]1CC[C@H]1[C@@H]3CC[C@H](O)[C@@]3(C)CC(=O)[C@@H]12 [3α,5α-reduced-11-keto-testosterone]
11β-HSD1 Reductase inhibition (11β-HSD1 Reductase [1]): Selective Inhibitor
11β-HSD1 Dehydrogenase inhibition (11β-HSD1 Dehydrogenase): No Inhibition

C[C@]12CC(=O)[C@H]3[C@@H](CCC4=CC(=O)CC[C@@]43C)[C@@H]1CC[C@@H]2O [11-Keto-testosterone]
11β-HSD1 Reductase inhibition (11β-HSD1 Reductase [1]): Selective Inhibitor
11β-HSD1 Dehydrogenase inhibition (11β-HSD1 Dehydrogenase): No Inhibition
11β-HSD2 Dehydrogenase inhibition (11β-HSD2 Dehydrogenase): No Inhibition

C[C@]12CC(=O)[C@H]3[C@@H](CCC4=CC(=O)CC[C@@]43C)[C@@H]1CC[C@@H]2C(=O)CO [11-dehydro-corticosterone]
amplification of the contractile response to phenylephrine by the steroid (rat aortic rings): amplified

C[C@]12CC[C@@H](O)C[C@@H]1CC[C@@H]1[C@@H]2C(=O)C[C@]2(C)C(=O)CC[C@@H]12 [3α,5α-reduced-11-keto-androstenedione]
11β-HSD1 Reductase inhibition (11β-HSD1 Reductase [1]): Selective Inhibitor
11β-HSD1 Dehydrogenase inhibition (11β-HSD1 Dehydrogenase): No Inhibition

C[C@@]12CC[C@@H]3[C@H]([C@@H](O)C[C@]4(C=O)[C@@H](C(=O)CO)CC[C@@H]34)[C@@]1(C)CC[C@@H](O)C2 [3α,5α-reduced aldosterone]
11β-HSD1 Reductase inhibition (11β-HSD1 Reductase [1]): No Inhibition
11β-HSD1 Dehydrogenase inhibition (11β-HSD1 Dehydrogenase): Moderate Inhibitor
11β-HSD2 Dehydrogenase inhibition (11β-HSD2 Dehydrogenase): Potent Inhibitor

C[C@]12CCC(=O)C[C@@H]1CC[C@@H]1[C@@H]2[C@@H](O)C[C@]2(C)[C@@H](C(=O)CO)CC[C@@H]12 [5α-dihydro-corticosterone]
11β-HSD1 Reductase inhibition (11β-HSD1 Reductase [1]): No inhibition
11β-HSD1 Dehydrogenase inhibition (11β-HSD1 Dehydrogenase): Potent Inhibitor
11β-HSD2 Dehydrogenase inhibition (11β-HSD2 Dehydrogenase): Potent Inhibitor

C[C@]12CC[C@@H](O)C[C@@H]1CC[C@@H]1[C@@H]2[C@@H](O)C[C@@]2(C)[C@@H]1CC[C@@H]2O [3α,5α-reduced-11β-OH-testosterone]
11β-HSD1 Reductase inhibition (11β-HSD1 Reductase [1]): No Inhibition
11β-HSD1 Dehydrogenase inhibition (11β-HSD1 Dehydrogenase): Potent Inhibitor (Non-Selective)
11β-HSD2 Dehydrogenase inhibition (11β-HSD2 Dehydrogenase): Potent Inhibitor (Non-Selective)

C[C@]12CC[C@@H](O)C[C@@H]1CC[C@@H]1[C@@H]2CC[C@]2(C)[C@@H](O)CC[C@@H]12 [3α5α TH-testosterone]
increase in NADPH production (rat Leydig cells): three to five fold increase

C[C@]12CC[C@@H](O)C[C@@H]1CC[C@H]1[C@@H]3CC[C@H](C(=O)CO)[C@@]3(C)CC(=O)[C@@H]12 [3α,5α-tetrahydro-11-dehydro-corticosterone]
11β-HSD1 Reductase inhibition (11β-HSD1 Reductase [1]): Potent Inhibitor
11β-HSD1 Dehydrogenase inhibition (11β-HSD1 Dehydrogenase): No Inhibition
11β-HSD2 Dehydrogenase inhibition (11β-HSD2 Dehydrogenase): Potent Inhibitor

CC(=O)[C@H]1CC[C@H]2[C@@H]3CCC4=CC(=O)CC[C@]4(C)[C@H]3[C@@H](O)C[C@]12C [11β-OH-progesterone]
11β-HSD1 Reductase inhibition (11β-HSD1 Reductase [1]): No Inhibition
11β-HSD1 Dehydrogenase inhibition (11β-HSD1 Dehydrogenase): Potent Inhibitor (Non-Selective)

C[C@]12CC[C@@H](O)C[C@@H]1CC[C@@H]1[C@@H]2[C@@H](O)C[C@]2(C)[C@@H](C(=O)CO)CC[C@@H]12 [3α,5α-reduced-corticosterone]
11β-HSD1 Reductase inhibition (11β-HSD1 Reductase [1]): No Inhibition
11β-HSD1 Dehydrogenase inhibition (11β-HSD1 Dehydrogenase): Potent Inhibitor
11β-HSD2 Dehydrogenase inhibition (11β-HSD2 Dehydrogenase): Potent Inhibitor
increase in NADPH production (rat Leydig cells; [4]): three to five fold increase

CC(=O)[C@H]1CC[C@H]2[C@@H]3CC[C@@H]4C[C@H](O)CC[C@]4(C)[C@H]3CC[C@]12C [3α,5β progesterone, 3α,5β-tetrahydro-progesterone]
11β-HSD1 Dehydrogenase inhibition (11β-HSD1 Dehydrogenase): potent inhibitors
effect on the backward reaction of 11β-HSD1 reductase (11β-HSD1 Reductase [2]): Neither of these compounds effected the backward reaction

C[C@]12CC[C@@H](O)C[C@H]1CC[C@@H]1[C@@H]2CC[C@]2(C)[C@@H](C(=O)CO)CC[C@@H]12 [3α,5β-deoxycorticosterone, 3α,5β-terahydro-deoxycorticosterone]
11β-HSD1 Dehydrogenase inhibition (11β-HSD1 Dehydrogenase): potent inhibitors
effect on the backward reaction of 11β-HSD1 reductase (11β-HSD1 Reductase [2]): Neither of these compounds effected the backward reaction

C[C@]12C[C@H](O)[C@H]3[C@@H](CCC4=CC(=O)CC[C@@]43C)[C@@H]1CC[C@@H]2C(=O)CO [corticosterone]
amplification of the contractile response to phenylephrine by the steroid (rat aortic rings): amplified contractile responses

CC(=O)[C@H]1CC[C@H]2[C@@H]3CCC4=CC(=O)CC[C@]4(C)[C@H]3C(=O)C[C@]12C [11-Keto-progesterone]
11β-HSD1 Reductase inhibition (11β-HSD1 Reductase [1]): Selective Inhibitor
11β-HSD1 Dehydrogenase inhibition (11β-HSD1 Dehydrogenase): No Inhibition
11β-HSD2 Dehydrogenase inhibition (11β-HSD2 Dehydrogenase): Potent Inhibitor
ability of 11-dehydro-corticosterone to amplify the contractile response to phenylephrine (rat aortic rings; rat aortic rings, 24 h, 11-dehydro-corticosterone 100 nmol/L): diminished
metabolism of 11-dehydro-corticosterone back to corticosterone [3]: decreased

CC(=O)[C@H]1CC[C@H]2[C@@H]3CC[C@H]4C[C@@H](O)CC[C@]4(C)[C@H]3[C@@H](O)C[C@]12C [3α,5α-reduced-11β-OH-progesterone]
11β-HSD1 Reductase inhibition (11β-HSD1 Reductase [1]): No Inhibition
11β-HSD1 Dehydrogenase inhibition (11β-HSD1 Dehydrogenase): Potent Inhibitor (Non-Selective)
11β-HSD2 Dehydrogenase inhibition (11β-HSD2 Dehydrogenase): Potent Inhibitor (Non-Selective)
increase in NADPH production (rat Leydig cells; [4]): three to five fold increase

C[C@]12C[C@H](O)[C@H]3[C@@H](CCC4=CC(=O)CC[C@@]43C)[C@@H]1CC[C@@H]2O [11β-OH-testosterone]
11β-HSD1 Reductase inhibition (11β-HSD1 Reductase [1]): No Inhibition
11β-HSD1 Dehydrogenase inhibition (11β-HSD1 Dehydrogenase): Inhibitor (Non-Selective)
11β-HSD2 Dehydrogenase inhibition (11β-HSD2 Dehydrogenase): Inhibitor (Non-Selective)

C[C@]12CC[C@H](O)C[C@H]1CC[C@@H]1[C@@H]2[C@@H](O)C[C@]2(C)C(=O)CC[C@H]12 [3α,5α-reduced-11β-OH-androstenedione]
11β-HSD1 Reductase inhibition (11β-HSD1 Reductase [1]): No Inhibition
11β-HSD1 Dehydrogenase inhibition (11β-HSD1 Dehydrogenase): Moderate Inhibitor
11β-HSD2 Dehydrogenase inhibition (11β-HSD2 Dehydrogenase): Potent Inhibitor (Non-Selective)

C[C@]12CCC(=O)C=C1CC[C@@H]1[C@@H]2C(=O)C[C@]2(C)C(=O)CC[C@@H]12 [11-Keto-androstenedione]
11β-HSD1 Reductase inhibition (11β-HSD1 Reductase [1]): Selective Inhibitor
11β-HSD1 Dehydrogenase inhibition (11β-HSD1 Dehydrogenase): No Inhibition
11β-HSD2 Dehydrogenase inhibition (11β-HSD2 Dehydrogenase): No Inhibition
